Source: the NIST ThermoML archive (doi:10.1021/je700022b)

Experiment: xn = mol fraction of the nth substance listed
Conditions: Liquid; for mass density: Constant-volume piezometry

CCCCn1cc[n+](C)c1.F[P-](F)(F)(F)(F)F [1-butyl-3-methylimidazolium hexafluorophosphate] + O=C=O
Conditions | mass density, 293.15 K [kg/m3] | mass density, 313.15 K [kg/m3] | mass density, 333.15 K [kg/m3] | mass density, 353.15 K [kg/m3] | viscosity, 293.15 K [mPa·s] | viscosity, 313.15 K [mPa·s] | viscosity, 333.15 K [mPa·s] | viscosity, 353.15 K [mPa·s]
10000 kPa, x2 = 0.056 | 1371 | 1350 | 1327 | 1306 | 372 | 119 | 49.3 | 25.2
10000 kPa, x2 = 0.123 | 1368 | 1342 | 1313 | 1286 | 277 | 84.8 | 40.6 | 21.6
10000 kPa, x2 = 0.229 | 1361 | 1329 | 1293 | 1260 | 135 | 54.1 | 27.2 | 15.8
10000 kPa, x2 = 0.332 | 1354 | 1313 | 1268 | 1226 | 89.2 | 36.9 | 20.5 | 12.3
10000 kPa, x2 = 0.44 | 1346 | 1288 | 1223 | 1162 | 43.9 | 24.7 | 16.1 | 10.7
15000 kPa, x2 = 0 | 1377 | 1362 | 1346 | 1330 | 468 | 140 | 61 | 29.3
15000 kPa, x2 = 0.056 | 1374 | 1356 | 1338 | 1319 | 397 | 125 | 51.9 | 26.4
15000 kPa, x2 = 0.123 | 1371 | 1351 | 1330 | 1310 | 287 | 90.1 | 42.8 | 22.6
15000 kPa, x2 = 0.229 | 1365 | 1344 | 1321 | 1299 | 144 | 55.8 | 28.3 | 16.5
15000 kPa, x2 = 0.332 | 1358 | 1337 | 1308 | 1284 | 91.9 | 39.9 | 21.1 | 12.7
15000 kPa, x2 = 0.44 | 1351 | 1323 | 1286 | 1255 | 45.9 | 24.8 | 16.5 | 10.8
20000 kPa, x2 = 0 | 1379 | 1364 | 1349 | 1332 | 504 | 151 | 63.2 | 30.5
20000 kPa, x2 = 0.056 | 1377 | 1360 | 1343 | 1325 | 424 | 132 | 54.5 | 28
20000 kPa, x2 = 0.123 | 1375 | 1356 | 1338 | 1319 | 310 | 92.4 | 44.2 | 23.4
20000 kPa, x2 = 0.229 | 1368 | 1350 | 1329 | 1310 | 150 | 61.2 | 29.1 | 16.9
20000 kPa, x2 = 0.332 | 1362 | 1342 | 1319 | 1298 | 100 | 41.6 | 21.7 | 12.8
20000 kPa, x2 = 0.44 | 1355 | 1330 | 1304 | 1278 | 46.8 | 26.8 | 17 | 10.9
